Paper PMC6150275, “Synthesis and Molecular Modeling Studies of N′-Hydroxyindazolecarboximidamides as Novel Indoleamine 2,3-Dioxygenase 1 (IDO1) Inhibitors” (Molecules : A Journal of Synthetic Chemistry and Natural …, 2017)
“Also recorded” adds a separate entry of the source. Like-named read-outs stand apart in the source and are kept apart here.

Assays:
[1] = target: T1, human IDO1 expressing HEK293 recombinant cells (Homo sapiens, UniProt P14902); test: Cell based assay for anti-IDO1 activity by determination of tryptophan and kynurenine in culture supernatant using LC-MS; details: for IC50: human IDO1-expressing HEK293 cells, doxycycline induced, 24 h, dose-response curve
T1 construct: expressed in transfected cells; host or cells: Flp-In-Rex- HEK293 cells (Invitrogen), pcDNA5/FRT/TO vector, doxycycline-induced
Experimental: All synthesized compounds were evaluated for inhibitory activities against IDO1. For this purpose, we generated human IDO1 gene-expressing HEK293 recombinant cells and used those cells to analyze the inhibitory capacity of the compounds. Briefly, we induced the expression vector system of IDO1 by treating […] cells with doxycycline, and measured both the depletion of L-tryptophan in culture media and the generation of kynurenine in IDO1-overexpressing HEK293 cells by using the LC-MS system upon culture supernatants.
cDNA of human IDO1 gene (provided from Korean UniGene, Daejeon, Korea) was inserted into pcDNA5/FRT/TO expression vector (Invitrogen, Waltham, MA, USA) and transfected into Flp-In-Rex- HEK293 cells (Invitrogen). After transfection, homogenous IDO1 expressing HEK293 cells were selected using hygromycin and confirmed for their IDO1 expression using Western blot.
To analyze anti-IDO1 activity of compounds, human IDO1 expressing HEK293 recombinant cells were seeded in 100 μL of complete MEM media containing 10% FBS in a 96-well plate. After incubation for 48 hours, various concentrations of compounds with 0.2 ng/mL doxycyclin (Sigma Aldrich, St. Louis, MO, USA) was treated and incubated for 24 h. Culture supernatants were collected and prepared for analysis of tryptophan and kynurenine using LC-MS. For preparation of samples for LC-MS analysis, 30 μL of culture supernatant was mixed with 2 μM caffeine containing 270 μL methanol. After centrifugation at 12,000 rpm for 10 min, 100 μL of supernatant was transferred into new 1.5 mL tubes. Distilled water (900 μL) was added into 100 μL of supernatant and vortexed. The concentrations of tryptophan and kynurenine were determined by an LC-MS/MS system consisting of an Agilent 1200 series HPLC system (Agilent Technologies, Santa Clara, CA, USA) with an API 4000 QTRAP hybrid triple quadrupole/linear ion trap mass spectrometer (AB Sciex, Foster City, CA, USA) equipped with a turbo electrospray interface. Chromatographic separation of tryptophan and kynurenine was achieved on a Unison UK-C18 column (100 mm × 2 mm i.d., 3 μm; Imtakt, Kyoto, Japan) with a Security Guard C18 guard column (4 mm × 20 mm i.d.; Phenomenex, Torrance, CA, USA) maintained at 25 °C. Isocratic mode was used to achieve separation of the analytes using mobile phase (acetonitrile with 0.1 formic acid and water with 0.1% formic acid (20:80 v/v) at a flow rate of 300 μL/min for 3 min. The multiple reaction monitoring (MRM) transition was m/z 204.94 → 188.1 for tryptophan and m/z 208.97 → 192.00 for kynurenine under positive-ionization. Optimized values for de-clustering potential, collision energy, entrance potential, and collision-exit potential were 26 V, 15 eV, 9.5 V and 8 V and 21 V, 13 eV, 10 V and 8 V for tryptophan and kynurenine, respectively. The optimized instrument conditions were as follows: ion spray voltage, 5500 V; source temperature, 450 °C; curtain gas, 25 psi; nebulizing gas (GS1), 30 psi; heating gas (GS2), 30 psi. Data analysis was performed using Analyst Software version 1.4.2. (AB Sciex, Foster City, CA, USA).

hIDO1 = target: T2, hIDO1 (Homo sapiens, UniProt P14902); test: hIDO1 enzymatic assay (BPS Bioscience IDO1 inhibitor screening assay kit); format: biochemical; details: for inhibition at 20 µM: 20 µM compound, enzymatic assay
T2 construct: purchased BPS Bioscience (San Diego, CA, USA)
Experimental: To analyze the hIDO1 inhibitory activities of compounds, we used IDO1 inhibitor screening assay kit and followed the protocol provided from BPS Bioscience (San Diego, CA, USA). Briefly, 5 μL of IDO solution was aliquoted into a 384-well plate and treated with 5 μL of compound in buffer at room temperature for 3 h. The data was measured at λ = 320 to 325 nm.

[2] = kynurenine by LC-MS, read-out: HEK293 IC50 Kynurenine Production
[3] = tryptophan by LC-MS, read-out: HEK293 IC50 Tryptophan Depletion

T2 sequence (P14902 whole entry): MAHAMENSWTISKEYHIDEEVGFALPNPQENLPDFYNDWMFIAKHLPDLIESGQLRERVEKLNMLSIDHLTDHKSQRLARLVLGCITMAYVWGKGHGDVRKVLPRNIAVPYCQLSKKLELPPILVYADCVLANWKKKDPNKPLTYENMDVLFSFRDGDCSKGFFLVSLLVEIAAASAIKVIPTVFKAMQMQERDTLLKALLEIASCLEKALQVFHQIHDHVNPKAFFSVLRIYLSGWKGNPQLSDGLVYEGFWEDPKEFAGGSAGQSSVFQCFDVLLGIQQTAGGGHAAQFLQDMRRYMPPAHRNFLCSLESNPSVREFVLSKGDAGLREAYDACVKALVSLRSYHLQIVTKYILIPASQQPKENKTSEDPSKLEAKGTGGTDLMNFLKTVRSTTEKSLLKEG
T1 sequence (P14902 whole entry): as above

Row | SMILES | IDO1 inhibition in cell-based assay (in words) [1] | IC50 [1, 2] | IC50 [1, 3] | inhibition at 20 µM (hIDO1) | hIDO1 inhibition in enzymatic assay (in words) (hIDO1)
1 | O/N=C(\Nc1ccc(F)c(Br)c1)c1cccc2cn[nH]c12 [Compound 8a, (Z)-N-(3-Bromo-4-fluorophenyl)-N′-hydroxy-1H-indazole-7-carboximidamide] | most active in this series; also recorded: moderate IDO1 inhibitory activity | 2.13 µM | 1.76 µM | 81% | –
2 | O/N=C(\Nc1ccc(F)c(Cl)c1)c1cccc2cn[nH]c12 [Compound 8b, (Z)-N-(3-Chloro-4-fluorophenyl)-N′-hydroxy-1H-indazole-7-carboximidamide] | – | 3.14 µM | 3.26 µM | 79% | –
3 | O/N=C(\Nc1cccc(Cl)c1)c1cccc2cn[nH]c12 [Compound 8c, (Z)-N-(3-Chlorophenyl)-N′-hydroxy-1H-indazole-7-carboximidamide] | – | 4.89 µM | 4.95 µM | 77% | –
4 | O/N=C(\Nc1ccc(F)cc1)c1cccc2cn[nH]c12 [Compound 8d, (Z)-N-(4-Fluorophenyl)-N′-hydroxy-1H-indazole-7-carboximidamide] | – | > 10 µM | > 10 µM | – | –
5 | O/N=C(\Nc1cc(F)ccc1F)c1cccc2cn[nH]c12 [Compound 8e, (Z)-N-(2,5-Difluorophenyl)-N′-hydroxy-1H-indazole-7-carboximidamide] | – | > 10 µM | > 10 µM | – | –
6 | CC(=O)c1cccc(N/C(=N\O)c2cccc3cn[nH]c23)c1 [Compound 8f, (Z)-N-(3-Acetylphenyl)-N′-hydroxy-1H-indazole-7-carboximidamide] | – | > 10 µM | > 10 µM | – | –
7 | Cc1cccc(N/C(=N\O)c2cccc3cn[nH]c23)c1 [Compound 8g, (Z)-N′-Hydroxy-N-(m-tolyl)-1H-indazole-7-carboximidamide] | – | > 10 µM | > 10 µM | – | –
8 | Cc1cc(N/C(=N\O)c2cccc3cn[nH]c23)ccc1Cl [Compound 8h, (Z)-N-(4-Chloro-3-methylphenyl)-N′-hydroxy-1H-indazole-7-carboximidamide] | – | > 10 µM | > 10 µM | – | –
9 | COc1ccc(N/C(=N\O)c2cccc3cn[nH]c23)cc1Cl [Compound 8i, (Z)-N-(3-Chloro-4-methoxyphenyl)-N′-hydroxy-1H-indazole-7-carboximidamide] | – | > 10 µM | > 10 µM | – | –
10 | O/N=C(\Nc1ccccc1)c1cccc2cn[nH]c12 [Compound 8j, (Z)-N′-Hydroxy-N-phenyl-1H-indazole-7-carboximidamide] | – | > 10 µM | > 10 µM | – | –
11 | O/N=C(\Nc1ccc(Cl)cc1)c1cccc2cn[nH]c12 [Compound 8k, (Z)-N-(4-Chlorophenyl)-N′-hydroxy-1H-indazole-7-carboximidamide] | – | > 10 µM | > 10 µM | – | –
12 | COc1ccc(N/C(=N\O)c2cccc3cn[nH]c23)cc1 [Compound 8l, (Z)-N′-Hydroxy-N-(4-methoxyphenyl)-1H-indazole-7-carboximidamide] | – | > 10 µM | > 10 µM | – | –
13 | Cc1ccc(N/C(=N\O)c2cccc3cn[nH]c23)cc1 [Compound 8m, (Z)-N′-Hydroxy-N-(p-tolyl)-1H-indazole-7-carboximidamide] | – | > 10 µM | > 10 µM | – | –
14 | Cn1ncc2cccc(/C(=N/O)Nc3ccc(F)c(Br)c3)c21 [Compound 12, (Z)-N-(3-Bromo-4-fluorophenyl)-N′-hydroxy-1-methyl-1H-indazole-7-carboximidamide] | did not inhibit IDO1 | > 10 µM | > 10 µM | 15% | did not inhibit IDO1
15 | O/N=C(\Nc1ccc(F)c(Br)c1)c1ccccc1O [Compound 16, (Z)-N-(3-Bromo-4-fluorophenyl)-N′,2-dihydroxybenzimidamide] | moderate inhibitory activity | 7.91 µM | 7.76 µM | – | –
